The target in data set [1] is CYP2C9 (Homo sapiens (Human), UniProt P11712). The data set is described as follows: CYP2C9 inhibition in human liver microsomes (diclofenac substrate). As to conditions: human liver microsome. It is filed as in vitro ADME. The protocol: Test Example 7. Inhibitory Effect of Compound of the Present Application on Enzymatic Activity of CYP2C9, CYP2D6, and CYP3A4
The inhibition of CYP2C9, CYP2D6, and CYP3A4 activity by the compound of the present application was determined using the following method.
I. Experimental materials and instruments • 1. Human liver microsome (Corning 452117) • 2. NADPH (Solarbio 705Y021) • 3. Positive substrates diclofenac (Sigma SLBV3438), dextromethorphan (TRC 3-EDO-175-1), and midazolam (Cerilliant FE01161704) • 4. Positive inhibitors sulfaphenazole (D. Ehrenstorfer GmbH 109012), quinidine (TCI WEODL-RE), and ketoconazole (Sigma 100M1091V) • 5. AB Sciex Triple Quad 5500 liquid chromatography-mass spectrometry system
1. Preparation of 100 mM phosphate-buffered saline (PBS): 7.098 g Na2HPO4 was weighed. 500 mL pure water was added. The mixture was dissolved by sonication to give solution A. 3.400 g KH2PO4 was weighed. 250 mL pure water was added. The mixture was dissolved by sonication to give solution B. The solution A was placed in a stirrer, and the solution B was slowly added until the pH reached 7.4, so that the 100 mM PBS buffer was prepared.
2. A 10 mM NADPH solution was prepared with a 100 mM PBS buffer. A 10 mM stock solution of the compound of the present application was diluted with DMSO to give a compound working solution at a concentration of 200×(6000, 2000, 600, 200, 60, 20, and 0 μM). The positive inhibitor stock solution was diluted with DMSO to give a positive inhibitor working solution at a concentration of 200×(sulfaphenazole, 1000, 300, 100, 30, 10, 3, and 0 μM; quinidine/ketoconazole, 100, 30, 10, 3, 1, 0.3, and 0 μM). Substrate working solutions (120 μM diclofenac, 400 μM dextromethorphan, and 200 μM midazolam) at a concentration of 200× were prepared with water, acetonitrile, or acetonitrile/methanol.
3. 2 μL of 20 mg/mL liver microsome solution, 1 μL of substrate working solution, 1 μL of compound working solution, and 176 μL of PBS buffer were taken, mixed well, and placed in a 37° C. water bath for pre-incubation for 15 min. 1 μL of sulfaphenazole, quinidine, or ketoconazole working solution was added to the positive control group instead of the compound working solution. At the same time, 10 mM NADPH solution was placed together in the 37° C. water bath for pre-incubation for 15 min. After 15 min, 20 μL of NADPH was added to each well to initiate the reaction. The mixture was incubated at 37° C. for 5 min (CYP2C9), 20 min (CYP2D6), or 5 min (CYP3A4). All incubated samples were in duplicate. After incubation for the corresponding period of time, 400 μL of icy methanol containing internal standard was added to all samples to stop the reaction. The mixture was vortexed, mixed well, and centrifuged for 40 min at 4° C. at 3220 g. 100 μL of the supernatant was transferred to a feeding plate after the centrifugation was completed, and 100 μL ultrapure water was added. The mixture was well mixed for LC-MS/MS analysis.
The reduction of metabolite production in the treatment groups versus the control group was compared by the peak area ratios of the sample to the internal standard, and the IC50 value was calculated using Excel XLfit 5.3.1.3.
Percentages of remaining activity were calculated according to the following formula:
Remaining activity%=peak area ratio of metabolite to internal standardtest sample/peak area ratio of metabolite to internal standardblank solvent×100%.

The nature of data set [2]: Metabolic stability in human liver microsomes. The format is in vitro ADME. As to conditions: pH 7.4, 1 μM compound, 0.5 mg/mL microsome, NADPH, read-out: Human liver microsome stability t1/2. The protocol: Test Example 4. Determination of Metabolic Stability of Compound of the Present Application in Liver Microsomes
The metabolic stability of the compound of the present application in liver microsomes was determined using the following method.
I. Experimental materials and instruments • 1. Human liver microsome (Corning 452117), beagle dog liver microsome (XENOTECH D1000), SD rat liver microsome (XENOTECH R1000), and CD-i mouse liver microsome (XENOTECH M1000) • 2. Na2HPO4 (Tianjin Guangfu Fine Chemical Research Institute 20180130) • 3. KH2PO4 (Tianjin Guangfu Fine Chemical Research Institute 20180920) • 4. MgCl2 (Tianjin Guangfu Fine Chemical Research Institute 20191216) • 5. NADPH (Solarbio 1216C022) • 6. Positive control compound verapamil (Sigma MKBV4993V) • 7. AB Sciex API4000 liquid chromatography-mass spectrometry system
1. Preparation of 100 mMV phosphate-buffered saline (PBS): 7.098 g Na2HPO4 was weighed. 500 mL pure water was added. The mixture was dissolved by sonication to give solution A. 3.400 g KH2PO4 was weighed. 250 mL pure water was added. The mixture was dissolved by sonication to give solution B. The solution A was placed in a stirrer, and the solution B was slowly added until the pH reached 7.4, so that the 100 mM PBS buffer was prepared.
2. Preparation of reaction system
The reaction system was prepared as follows:
3. The reaction system was pre-incubated in a 37° C. water bath for 10 min. 40 μL of 10 mM NADPH solution (NADPH was dissolved by 100 mM phosphate-buffered saline) was added to the reaction system with a final concentration of NADPH being 1 mM. A negative control was made by replacing the NADPH solution with 40 μL phosphate-buffered saline. The negative control was used to exclude the effect of chemical stability of the compound itself.
4. The reaction was initiated by adding 4 μL of 100 μM of the compound of the present application and verapamil, the positive control compound, to the reaction system with a final concentration of the compound being 1 μM.
5. After being uniformly mixed in a vortex oscillator, 50 μL incubation sample was respectively taken out at 0.5, 15, 30, 45, and 60 min, and the reaction was stopped by 200 μL glacial acetonitrile containing an internal standard. The sample was centrifuged at 3220 g for 45 min. 90 μL of the supernatant was transferred to a feeding plate after the centrifugation was completed, and 90 μL ultrapure water was added. The mixture was well mixed for LC-MS/MS analysis.
All data were calculated by Microsoft Excel software. The peak area was detected through an extracted ion chromatogram. The in vitro half-life (t1/2) of the compound was determined by linear fitting of the natural logarithm of compound elimination percentage over time.
In vitro half-life (t1/2) was calculated by the slope: […]
The in vitro intrinsic clearance (in μL/min/mg protein) was calculated using the following formula:
in vitro CLint=k×volume of incubation (μL)/amount of proteins (mg)
CLint was intrinsic clearance; k was an elimination rate constant; volume of incubation was the incubation volume (μL); amount of proteins was the amount of protein (mg)

CYP2C9, sequence (P11712 whole entry): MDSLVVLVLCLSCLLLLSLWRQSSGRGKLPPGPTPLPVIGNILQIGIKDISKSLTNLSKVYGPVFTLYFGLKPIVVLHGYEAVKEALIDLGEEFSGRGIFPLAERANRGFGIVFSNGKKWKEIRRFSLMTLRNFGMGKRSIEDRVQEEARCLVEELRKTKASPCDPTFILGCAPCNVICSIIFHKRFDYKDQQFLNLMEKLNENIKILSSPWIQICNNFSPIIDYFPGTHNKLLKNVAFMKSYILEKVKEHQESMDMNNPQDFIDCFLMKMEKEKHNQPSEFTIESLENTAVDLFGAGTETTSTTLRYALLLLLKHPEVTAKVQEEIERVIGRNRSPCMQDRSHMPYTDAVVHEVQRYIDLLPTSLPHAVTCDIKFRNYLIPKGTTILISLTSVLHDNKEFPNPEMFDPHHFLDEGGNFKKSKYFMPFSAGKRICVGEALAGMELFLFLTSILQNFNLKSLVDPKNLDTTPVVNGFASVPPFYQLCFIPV

Consider `Cc1ncccc1-n1c(=O)c2ncn(C)c2c2ccc(C(F)(F)F)nc21` (atropisomer, axis not shown) [Compound 20, 1-methyl-5-(2-methylpyridin-3-yl)-7-(trifluoromethyl)-1,5-dihydro-4H-imidazo[4,5-c][1,8]naphthyridin-4-one], for which the half-maximal inhibitory concentration (IC50) in data set [1] was > 30 µM. The half-life at 1 μM in data set [2] is > 5 h.

On to `Cn1cnc2c(=O)n(-c3cccc(F)c3Cl)c3nc(C(F)(F)F)ccc3c21` (atropisomer, axis not shown) [Compound 25, 5-(2-chloro-3-fluorophenyl)-1-methyl-7-(trifluoromethyl)-1,5-dihydro-4H-imidazo[4,5-c][1,8]naphthyridin-4-one], for which the concentration for half-maximal inhibition (IC50) in data set [1] is > 30 µM. Moreover, the half-life at 1 μM in data set [2] was > 5 h.

Turning to `Cn1cnc2c(=O)n(-c3cccc(F)c3Cl)c3nc(C(F)(F)F)ccc3c21` (single isomer, unassigned) [Compound 25-P2, 5-(2-chloro-3-fluorophenyl)-1-methyl-7-(trifluoromethyl)-1,5-dihydro-4H-imidazo[4,5-c][1,8]naphthyridin-4-one], the IC50 in data set [1] was > 30 µM. Also, in data set [2], the half-life at 1 μM was > 5 h. On to `Cn1cnc2c(=O)n(-c3cccnc3C(F)(F)F)c3nc(C(F)(F)F)ccc3c21` (single isomer, unassigned) [Compound 41-P2, 1-methyl-7-(trifluoromethyl)-5-(2-(trifluoromethyl)pyridin-3-yl)-1,5-dihydro-4H-imidazo[4,5-c][1,8]naphthyridin-4-one], for which the 50% inhibitory concentration (IC50) in data set [1] was > 30 µM. Also, in data set [2], the half-life at 1 μM was > 5 h. For `Cn1cnc2c(=O)n(-c3cccnc3C3CC3)c3nc(C(F)(F)F)ccc3c21` (single isomer, unassigned) [Compound 42-P2, 5-(2-cyclopropylpyridin-3-yl)-1-methyl-7-(trifluoromethyl)-1,5-dihydro-4H-imidazo[4,5-c][1,8]naphthyridin-4-one] the same measures were > 30 µM and 4.26 h. The like results for `Cn1cnc2c(=O)n(-c3cccnc3C3CC3)c3cc(C(F)(F)F)ccc3c21` (single isomer, unassigned) [Compound 48-P2, 5-(2-cyclopropylpyridin-3-yl)-1-methyl-7-(trifluoromethyl)-1,5-dihydro-4H-imidazo[4,5-c]quinolin-4-one] were, in that order, > 30 µM and > 5 h. The like results for `Cn1cnc2c(=O)n(-c3cccnc3C3CC3)c3cc(Cl)ccc3c21` (single isomer, unassigned) [Compound 49-P2, 7-chloro-5-(2-cyclopropylpyridin-3-yl)-1-methyl-1,5-dihydro-4H-imidazo[4,5-c]quinolin-4-one] were, in that order, > 30 µM and 3.78 h. With `O=c1c2ncoc2c2ccc(C(F)(F)F)nc2n1-c1cccnc1C1CC1` (single isomer, unassigned) [Compound 81-P2, 5-(2-cyclopropylpyridin-3-yl)-7-(trifluoromethyl)oxazolo[4,5-c][1,8]naphthyridin-4(5H)-one], the half-inhibitory concentration (IC50) in data set [1] is > 30 µM. Also, the half-life at 1 μM in data set [2] is > 5 h. For `Cn1cnc2c(=O)n(-c3cccc(F)c3Cl)c3cc(Cl)ccc3c21` [Compound 39, 7-chloro-5-(2-chloro-3-fluorophenyl)-1-methyl-1,5-dihydro-4H-imidazo[4,5-c]quinolin-4-one], in data set [1], the half-inhibitory concentration (IC50) was > 30 µM. On to `Cc1ncccc1-n1c(=O)c2ncoc2c2ccc(C(F)(F)F)nc21` [Compound 40, 5-(2-methylpyridin-3-yl)-7-(trifluoromethyl)oxazolo[4,5-c][1,8]naphthyridin-4(5H)-one], for which the 50% inhibitory concentration (IC50) in data set [1] was > 30 µM. For the same compound, the half-life at 1 μM in data set [2] was > 5 h.

Regarding `Cc1ncccc1-n1c(=O)c2ncn(C)c2c2ccc(C(F)(F)F)cc21` [Compound 45, 1-methyl-5-(2-methylpyridin-3-yl)-7-(trifluoromethyl)-1,5-dihydro-4H-imidazo[4,5-c]quinolin-4-one], the IC50 in data set [1] was > 30 µM. Besides, the half-life at 1 μM in data set [2] was > 5 h.

The values are drawn from patent US20240124454A1, “TRICYCLIC COMPOUND AND USE THEREOF” (NANJING ZAIMING PHARMACEUTICAL CO., LTD., priority 2020, published 2024).
